≈ marks a conversion by molar mass, not a printed value. Like-named read-outs stand apart in the source and are kept apart here.
Columns and labels:
[1] = test system: human red blood cells (hRBC's); assay: Hemolysis assay; format: cell-based; conditions: for Hemolysis HC10 / Hemolysis HC50: red cells of human
Procedure: Freshly drawn human red blood cells (hRBC's) with additive K2 EDTA (spray-dried) were washed with PBS buffer several times and centrifuged at 1000 g for 10 min until a clear supernatant was observed. The hRBC's were resuspended in 1×PBS to get a 5% v/v suspension. Two-fold serial dilutions of γ-AApeptides dissolved in 1×PBS from 250 μg/ml through 1.6 μg/ml were added to a sterile 96-well plate to make up a total volume of 50 μL in each well. Then 50 μL of 5% v/v hRBC solution was added to make up a total volume of 100 μL in each well. The 0% hemolysis point and 100% hemolysis point were determined in 1×PBS and 0.2% Triton-X-100, respectively (Patch et al., 2003). The plate was then incubated at 37° C. for 1 h and centrifuged at 3500 rpm for 10 min. The supernatant (30 μL) was diluted with 100 μL of 1×PBS and absorption was detected by measuring the optical density at 360 nm by Biotek Synergy HT microtiter plate reader. % hemolysis was determined by the following equation: % hemolysis=(Abssample−AbsPBS)/(AbsTriton−AbsPBS)×100 H50 is the concentration of γ-AApeptide amphiphiles at which 50% hemolysis was observed. The highest concentration tested in the hemolytic assay was 500 μg/ml. 7. Fluorescence Microscopy
The sequences shown in FIG. 12 were also evaluated via hemolytic assays. Freshly drawn human red blood cells (hRBC's) with additive K2 EDTA (spray-dried) were washed with PBS buffer several times and centrifuged at 1000 g for 10 min until a clear supernatant was observed. The hRBC's were resuspended in 1×PBS to get a 5% v/v suspension. Two-fold serial dilutions of lipidated γ-AApeptides dissolved in 1×PBS from 1 mg/ml through 6.3 μg/ml were added to sterile 96-well plates to make up a total volume of 50 μL in each well. Then 50 μL of 5% v/v hRBC solution was added to make up a total volume of 100 μL in each well. The 0% hemolysis point and 100% hemolysis point were determined in 1×PBS and 0.2% Triton-X-100, respectively (Patch et al., 2003). The plate was then incubated at 37° C. for 1 h and centrifuged at 3500 rpm for 10 min. The supernatant (30 μL) was diluted with 100 μL of 1×PBS and absorption was detected by measuring the optical density at 360 nm with a Biotek Synergy HT microtiter plate reader. % hemolysis was determined by the following equation: % hemolysis=(Abs sample−Abs PBS)/(Abs Triton−Abs PBS)×100

[2] = test system: E. coli (JM109)
[3] = test system: B. subtilis (BR151)
[4] = test system: multi-drug resistant S. epidermidis (RP62A); conditions: for MIC, Gram positive S. epidermidis: Table 7
[5] = test system: vancomycin-resistant E. faecalis (ATCC 700802); conditions: for MIC, Gram positive E. faecalis: Table 7
[6] = test system: methicillin-resistant S. aureus (ATCC 33592); conditions: for MIC, Gram positive S. aureus: Table 7
[7] = test system: B. anthracis
[8] = test system: C. albicans (ATCC 10231)
[9] = test system: K. pneumoniae (ATCC 13383)
[10] = test system: methicillin-resistant S. aureus (MRSA, USA100 lineage); conditions: USA100
[11] = test system: multi-drug resistant P. aeruginosa ATCC 27853

SMILES | Hemolysis (H50) [1] [µg/mL] | MIC, E. coli [2] [µg/mL] | MIC, B. subtilis [3] [µg/mL] | MIC, K. pneumoniae (causing pneumonia) [9] [µg/mL] | Hemolysis HC10 [1] [µg/mL] | Hemolysis HC50 [1] [µg/mL] | MIC, Gram negative E. coli [2] [µg/mL] | MIC, Gram negative K. pneumoniae [9] [µg/mL] | MIC, Gram negative P. aeruginosa ([11]; ATCC 27853) [µg/mL] | MIC, Gram positive B. subtilis [3] [µg/mL] | MIC, Gram positive S. epidermidis [4] [µg/mL] | MIC, Gram positive E. faecalis [5] [µg/mL] | MIC, Gram positive S. aureus [6] [µg/mL] | MIC, Fungi, C. albicans ([8]; ATCC 10231) [µg/mL] | other results
CC(C)C[C@@H](CN(CC(=O)N[C@@H](CCCCN)CN(CC(=O)N[C@@H](CCCCN)CN(CC(=O)N[C@@H](CCCCN)CN(CC(N)=O)C(=O)CCc1ccccc1)C(=O)CCc1ccccc1)C(=O)CCc1ccccc1)C(=O)CCc1ccccc1)NC(=O)CN(C[C@H](CCCCN)NC(=O)CN(C[C@H](CCCCN)NC(=O)CN(C[C@@H](N)CCCCN)C(=O)CCc1ccccc1)C(=O)CCc1ccccc1)C(=O)CCc1ccccc1 [γ4] | >500 | 2.5 to 5 | 2.5 (≈ 1.18 µM) |  |  |  |  |  |  |  |  |  |  |  | MIC, S. epidermidis (multi-drug resistant) ([4]; Table 1): 3.1 to 6.25 µg/mL; MIC, E. faecalis (vancomycin-resistant) ([5]; Table 1): 12.5 to 25 µg/mL; MIC, S. aureus (methicillin-resistant) ([6]; Table 1): 3.1 to 6.25 µg/mL; MIC, B. anthracis (lethal bioweapon) ([7]; Table 1): 25 to 50 µg/mL; MIC, Fungi C. albicans ([8]; ATCC 10231, 48 h): 12.5 to 25 µg/mL
NCCCC[C@@H](C(N)=O)N(CCNC(=O)[C@H](CCCCN)N(CCNC(=O)[C@H](CCCCN)N(CCNC(=O)[C@H](CCCCN)N(CCNC(=O)[C@H](CCCCN)N(CCNC(=O)[C@H](CCCCN)N(CCNC(=O)[C@H](CCCCN)N(CCN)C(=O)CCc1ccccc1)C(=O)CCc1ccccc1)C(=O)CCc1ccccc1)C(=O)CCc1ccccc1)C(=O)CCc1ccccc1)C(=O)CCc1ccccc1)C(=O)CCc1ccccc1 [α1, reference compound] |  | 4.5 (≈ 2.1 µM) | 2 (≈ 0.934 µM) | >100 |  |  |  |  |  |  |  |  |  |  | Hemolysis (H50) ([1]; Table 1, concentration at which 50% hemolysis was observed): >500 µg/mL; MIC, S. epidermidis (multi-drug resistant) ([4]; multi-drug resistant (RP62A)): 10 µg/mL (≈ 4.67 µM); MIC, E. faecalis (vancomycin-resistant) ([5]; ATCC 700802): 75 µg/mL (≈ 35 µM); MIC, S. aureus (methicillin-resistant) ([6]; ATCC 33592): 75 µg/mL (≈ 35 µM); MIC, MRSA USA100 (leading hospital-associated strain) [10]: >100 µg/mL; MIC, B. anthracis (lethal bioweapon) [7]: >100 µg/mL; MIC, Fungi C. albicans ([8]; ATCC 10231, 48 h): 20 to 30 µg/mL
CCCCCCCCCCCCCCCC(=O)N[C@@H](C)CN(CC(=O)N[C@@H](CCCCN)CN(CC(=O)N[C@@H](Cc1ccccc1)CN(CC(=O)N[C@@H](Cc1ccccc1)CN(CC(N)=O)C(=O)CCc1c[nH]cn1)C(=O)CCc1c[nH]cn1)C(=O)CCCN)C(C)=O [γAA3] | 150 | 1.6 to 3.1 | 1.6 to 3.1 | 12.5 to 25 |  |  |  |  |  |  |  |  |  |  | MIC, P. aeruginosa ([11]; ATCC 27853): 3 to 6 µg/mL; MIC, S. epidermidis (multi-drug resistant) ([4]; Table 3): 1.6 to 3.1 µg/mL; MIC, E. faecalis (vancomycin-resistant) ([5]; Table 3): 1.6 to 3.1 µg/mL; MIC, S. aureus (methicillin-resistant) ([6]; Table 3): 1.6 to 3.1 µg/mL; MIC, Fungi C. albicans ([8]; ATCC 10231): 1.6 to 3.1 µg/mL
CC(C)CCC(=O)N1CC(=O)N[C@@H](Cc2ccccc2)CN(C(=O)CCC(C)C)CC(=O)N[C@@H](Cc2ccccc2)CN(C(=O)CCC(C)C)CC(=O)N[C@@H](CCCCN)CN(C(=O)CCc2ccccc2)CC(=O)N[C@@H](CCCCN)CN(C(=O)CCc2ccccc2)CC(=O)N[C@@H](CCCCN)CN(C(=O)CCc2ccccc2)CC(=O)N[C@@H](Cc2ccccc2)CN(CC(N)=O)C(=O)CCC(=O)N[C@@H](Cc2ccccc2)C1 [γAA6] | 300 | 25 to 50 | 2 (≈ 0.969 µM) | 10 (≈ 4.84 µM) |  |  |  |  |  |  |  |  |  |  | MIC, P. aeruginosa ([11]; Table 3): 10 µg/mL (≈ 4.84 µM); MIC, S. epidermidis (multi-drug resistant) ([4]; Table 3): 2 µg/mL (≈ 0.969 µM); MIC, E. faecalis (vancomycin-resistant) ([5]; Table 3): 5 µg/mL (≈ 2.42 µM); MIC, S. aureus (methicillin-resistant) ([6]; Table 3): 3 µg/mL (≈ 1.45 µM); MIC, Fungi C. albicans ([8]; ATCC 10231): 4 µg/mL (≈ 1.94 µM)
NCCCC[C@H](N)CN(CC(=O)N[C@@H](CCCCN)CN(CC(=O)N[C@@H](CCCCN)CN(CC(=O)N[C@@H](CCCCN)CN(CC(=O)N[C@@H](CCCCN)CN(CC(=O)N[C@@H](CCCCN)CN(CC(=O)N[C@@H](CCCCN)CN(CC(N)=O)C(=O)CCc1ccccc1)C(=O)CCc1ccccc1)C(=O)CCc1ccccc1)C(=O)CCc1ccccc1)C(=O)CCc1ccccc1)C(=O)CCc1ccccc1)C(=O)CCc1ccccc1 [γ3] | >500 | 2.5 to 5 | 2.5 (≈ 1.17 µM) | >100 |  |  |  |  |  |  |  |  |  |  | MIC, S. epidermidis (multi-drug resistant) ([4]; Table 1): 6.25 to 12.5 µg/mL; MIC, E. faecalis (vancomycin-resistant) ([5]; Table 1): 12.5 to 25 µg/mL; MIC, S. aureus (methicillin-resistant) ([6]; Table 1): 12.5 to 25 µg/mL; MIC, B. anthracis (lethal bioweapon) ([7]; Table 1): 25 to 50 µg/mL; MIC, Fungi C. albicans ([8]; ATCC 10231, 48 h): 12.5 to 25 µg/mL
CCCCCCCC/C=C\CCCCCCCC(=O)N[C@@H](CCCCN)CN(CC(N)=O)C(=O)CCCN [Sequence 10] |  |  |  |  | 40 | 100 | 2.5 (≈ 4.65 µM) | 35 (≈ 65.1 µM) | 3 (≈ 5.58 µM) | 2 (≈ 3.72 µM) | 2 (≈ 3.72 µM) | 2.5 (≈ 4.65 µM) | 4 (≈ 7.44 µM) | 2 (≈ 3.72 µM) | 
CCCCCCCC/C=C\CCCCCCCC(=O)N[C@@H](CCCCN)CN(CC(N)=O)C(=O)CCCN [γAA7] | >500 | 2.5 (≈ 4.65 µM) | 2 (≈ 3.72 µM) | 50 (≈ 93 µM) |  |  |  |  |  |  |  |  |  |  | MIC, P. aeruginosa ([11]; ATCC 27853): 2.5 µg/mL (≈ 4.65 µM); MIC, S. epidermidis (multi-drug resistant) ([4]; Table 3): 1 µg/mL (≈ 1.86 µM); MIC, E. faecalis (vancomycin-resistant) ([5]; Table 3): 2.5 µg/mL (≈ 4.65 µM); MIC, S. aureus (methicillin-resistant) ([6]; Table 3): 5 µg/mL (≈ 9.3 µM); MIC, Fungi C. albicans ([8]; ATCC 10231): 1.5 µg/mL (≈ 2.79 µM)
CCCCCCCCCCCCCCCC(=O)N[C@@H](CCCCN)CN(CC(N)=O)C(=O)CCCN [Sequence 2] |  |  |  |  | 25 | 40 | 2.5 (≈ 4.88 µM) | 35 (≈ 68.4 µM) | 10 (≈ 19.5 µM) | 1.5 (≈ 2.93 µM) | 2 (≈ 3.91 µM) | 2.5 (≈ 4.88 µM) | 2.5 (≈ 4.88 µM) | 2 (≈ 3.91 µM) | 
CCCCCCCC/C=C\CCCCCCCC(=O)N[C@@H](CCCCN)C(=O)N[C@@H](CCCCN)CN(CC(N)=O)C(=O)CCCN [Sequence 11] |  |  |  |  | 80 | > 500 | 10 (≈ 15 µM) | 40 (≈ 60.1 µM) | 15 (≈ 22.5 µM) | 2 (≈ 3 µM) | 2 (≈ 3 µM) | 2.5 (≈ 3.75 µM) | 5 (≈ 7.51 µM) | 5 (≈ 7.51 µM) | 
CC(=O)N(CC(=O)N[C@@H](C)CN(CC(=O)N[C@@H](CC(C)C)CN(CC(=O)N[C@@H](CC(C)C)CN(CC(=O)N[C@@H](CC(C)C)CN(CC(N)=O)C(=O)CCCN)C(=O)CCCN)C(=O)CCCN)C(C)=O)C[C@H](C)N [Sequence 9] |  |  |  |  | 120 | > 500 | >100 | >100 | >100 | >100 | >100 | >100 | >100 | >100 | 
CCCCCCCCCCCCCCCC(=O)N[C@@H](C)CN(CC(=O)N[C@@H](C)CN(CC(=O)N[C@@H](Cc1ccccc1)CN(CC(=O)N[C@@H](Cc1ccccc1)CN(CC(=O)N[C@@H](Cc1ccccc1)CN(CC(N)=O)C(=O)CC(=O)O)C(=O)CC(=O)O)C(=O)CC(=O)O)C(C)=O)C(C)=O [Sequence 8] |  |  |  |  | 200 | > 500 | >100 | >100 | >100 | >100 | >100 | >100 | >100 | >100 | 

From patent US10308686B2, “Gamma-AApeptides with potent and broad-spectrum antimicrobial activity” (priority 2012, dated 2019)
